Source: PMC5865651, “Novel inhibitor candidates of TRPV2 prevent damage of dystrophic myocytes and ameliorate against dilated cardiomyopathy in a hamster model” (Oncotarget, 2018)

Key:
J2N-k myocytes = assay: Stretch-induced CK release from J2N-k myocytes; format: cell-based, hamster; conditions: 30 μM, 30 min pretreatment, cyclic stretch 20% elongation 1 h
Description: Creatine phosphokinase (CK) activity in the medium was determined using an in vitro colorimetric assay kit (CK Test Kit; Wako Pure Chemical Industries, Ltd., Osaka, Japan) according to the manufacturer's protocol The cTN-I level in the serum was measured, while quantitative immunoblotting and immunocytochemistry were performed as previously described. Protein concentration was measured using the bicinchoninic acid assay (Pierce Chemical Co., Rockford, IL, USA) with bovine serum albumin as the standard. All histochemical and physiological analyses were performed by investigators blinded to the drug treatments. Unless otherwise stated, results are presented as the mean ± SD of at least 5 determinations. The unpaired Student's t-test and one-way ANOVA followed by Dunnett's test were used to analyse the data. Values of P < 0.05 (indicated as asterisks in the figures) were considered statistically significant. All cellular measurements were repeated at least 5 times. Representative data are shown.

[1] = test system: dystrophic myocytes from J2N-k hamsters; assay: Ca2+ response in cultured myocytes from dystrophic J2N-k hamsters; format: cell-based, hamster; conditions: compound 15 μM

Structure (SMILES) | reduction of stretch-induced CK release (J2N-k myocytes) | effect on high extracellular Ca2+ (5 mM)-induced increase in [Ca2+]i [1] | effect on 2-APB-induced increase in [Ca2+]i ([1]; 2-APB 0.5 mM, CaCl2 5 mM, pH 6.5)
COc1cc(/C=C(\C#N)C(=O)Nc2ccccc2C(=O)O)cc(Cl)c1OC [A3, 2-[(2E)-3-(3-Chloro-4,5-dimethoxyphenyl)-2-cyanoprop-2-enoylamino]benzoic acid] | up to 70% |  | 
CCN1C=CC(=CC=C(C=Cc2cc[n+](CC)c3ccccc23)c2cc[n+](CC)c3ccccc23)c2ccccc21.[I-].[I-] [lumin, 4,4′-[3-[2-[1-ethyl-4(1H)-quinolinylidene]ethylidene]-1-propene-1,3-diyl]bis(1-ethylquinolinium) diiodide] |  | inhibited | inhibited
